According to the NIST ThermoML archive (doi:10.1021/je900596d):

Conditions: for vapor or sublimation pressure: Liquid, Closed cell (Static) method; for mass density: 263.41 K, Fluid (supercritical or subcritical phases), Vibrating tube method

FC(F)=C(F)C(F)(F)F [hexafluoropropene]
Conditions | mass density [kg/m3] | vapor or sublimation pressure [kPa]
1.9 kPa | 0.11 | –
2.4 kPa | 0.12 | –
2.9 kPa | 0.15 | –
3.5 kPa | 0.21 | –
4.3 kPa | 0.25 | –
5 kPa | 0.26 | –
5.7 kPa | 0.35 | –
6.3 kPa | 0.39 | –
7.1 kPa | 0.47 | –
7.8 kPa | 0.48 | –
8.5 kPa | 0.55 | –
9.3 kPa | 0.61 | –
10 kPa | 0.66 | –
10.7 kPa | 0.71 | –
11.4 kPa | 0.79 | –
12.1 kPa | 0.8 | –
12.9 kPa | 0.87 | –
13.6 kPa | 0.9 | –
14.4 kPa | 0.96 | –
15 kPa | 1 | –
15.8 kPa | 1.02 | –
16.5 kPa | 1.08 | –
17.1 kPa | 1.17 | –
17.9 kPa | 1.18 | –
18.6 kPa | 1.25 | –
20 kPa | 1.33 | –
21.5 kPa | 1.4 | –
22.9 kPa | 1.53 | –
24.3 kPa | 1.63 | –
25.8 kPa | 1.75 | –
27.2 kPa | 1.83 | –
28.6 kPa | 1.89 | –
30 kPa | 2.05 | –
31.4 kPa | 2.13 | –
32.8 kPa | 2.25 | –
34.2 kPa | 2.33 | –
35.5 kPa | 2.43 | –
36.3 kPa | 2.5 | –
37.7 kPa | 2.61 | –
39 kPa | 2.7 | –
40.5 kPa | 2.77 | –
41.9 kPa | 2.87 | –
43.2 kPa | 2.95 | –
44.5 kPa | 3.08 | –
45.3 kPa | 3.09 | –
46.6 kPa | 3.21 | –
48 kPa | 3.31 | –
49.4 kPa | 3.4 | –
50.7 kPa | 3.48 | –
52.1 kPa | 3.59 | –
53.4 kPa | 3.66 | –
54.7 kPa | 3.8 | –
56.1 kPa | 3.85 | –
57.5 kPa | 3.97 | –
58.8 kPa | 4.06 | –
60.1 kPa | 4.18 | –
61.4 kPa | 4.28 | –
62.8 kPa | 4.33 | –
64 kPa | 4.44 | –
65.4 kPa | 4.56 | –
66.7 kPa | 4.62 | –
68 kPa | 4.73 | –
69.3 kPa | 4.82 | –
70.5 kPa | 4.89 | –
71.3 kPa | 4.97 | –
72.5 kPa | 5.04 | –
73.9 kPa | 5.17 | –
75.2 kPa | 5.2 | –
76.4 kPa | 5.28 | –
77.7 kPa | 5.44 | –
79 kPa | 5.49 | –
80.3 kPa | 5.61 | –
81.6 kPa | 5.72 | –
82.7 kPa | 5.81 | –
83.5 kPa | 5.85 | –
84.7 kPa | 5.95 | –
86 kPa | 6 | –
87.2 kPa | 6.11 | –
88.4 kPa | 6.26 | –
89.8 kPa | 6.31 | –
91 kPa | 6.41 | –
92.3 kPa | 6.52 | –
93.5 kPa | 6.56 | –
94.6 kPa | 6.62 | –
96 kPa | 6.75 | –
97.3 kPa | 6.84 | –
98.5 kPa | 6.94 | –
99.7 kPa | 7.02 | –
100.4 kPa | 7.07 | –
101.6 kPa | 7.14 | –
102.8 kPa | 7.21 | –
104.5 kPa | 7.41 | –
105.8 kPa | 7.51 | –
107 kPa | 7.55 | –
108.2 kPa | 7.68 | –
109.5 kPa | 7.75 | –
110.7 kPa | 7.85 | –
112.4 kPa | 7.99 | –
114.2 kPa | 8.06 | –
115.5 kPa | 8.22 | –
116.7 kPa | 8.3 | –
117.9 kPa | 8.33 | –
119.6 kPa | 8.49 | –
120.8 kPa | 8.59 | –
122 kPa | 8.7 | –
123.2 kPa | 8.78 | –
124.4 kPa | 8.88 | –
126 kPa | 8.99 | –
127.2 kPa | 9.05 | –
128.4 kPa | 9.16 | –
130.2 kPa | 9.28 | –
131.8 kPa | 9.44 | –
133 kPa | 9.5 | –
134.7 kPa | 9.61 | –
136.4 kPa | 9.79 | –
138.1 kPa | 9.87 | –
139.8 kPa | 10.02 | –
141.5 kPa | 10.14 | –
143.2 kPa | 10.31 | –
144.8 kPa | 10.44 | –
146.5 kPa | 10.54 | –
148.1 kPa | 10.66 | –
149.8 kPa | 10.8 | –
151.4 kPa | 10.89 | –
153 kPa | 11.03 | –
154.7 kPa | 11.17 | –
156.3 kPa | 11.29 | –
157.9 kPa | 11.41 | –
159.6 kPa | 11.53 | –
161.2 kPa | 11.7 | –
253.26 K | – | 149.7
258.26 K | – | 184.1
263.16 K | – | 224.5
